In PMC7585200, “Methanosarcina acetivorans contains a functional ISC system for iron-sulfur cluster biogenesis” (BMC Microbiology, 2020):

Columns and labels:
IscS2 [1] = target: T1, IscS2 (Methanosarcina acetivorans, UniProt Q8TME0); experiment: sulfide release, methylene blue assay ([…] nm); format: biochemical; conditions: 1 mM L-cysteine, 1 mM DTT, 50 mM Tris pH 7.5, 25 °C, with or without 50 μM PLP
T1 construct: gene iscS; full-length, N-terminal His6-tag (pET28a) cut with thrombin, E. coli Rosetta (DE3) pLacI; homodimer (84 kDa by SEC)
T1 sequence (Q8TME0 entry or part of it): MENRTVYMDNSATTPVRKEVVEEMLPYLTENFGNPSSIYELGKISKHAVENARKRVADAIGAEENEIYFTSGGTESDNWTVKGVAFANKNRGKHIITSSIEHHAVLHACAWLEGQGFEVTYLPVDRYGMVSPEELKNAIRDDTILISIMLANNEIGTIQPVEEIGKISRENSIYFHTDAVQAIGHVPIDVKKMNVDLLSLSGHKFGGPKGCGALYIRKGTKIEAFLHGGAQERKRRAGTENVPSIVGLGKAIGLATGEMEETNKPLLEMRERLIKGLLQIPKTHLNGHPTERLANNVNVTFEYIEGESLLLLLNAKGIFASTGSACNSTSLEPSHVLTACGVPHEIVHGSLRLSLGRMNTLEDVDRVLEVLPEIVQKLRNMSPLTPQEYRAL

IscS2 [2] = target: T1, IscS2; experiment: UV-visible spectrum ([…] nm) and cysteine desulfurase activity with and without PLP; format: biochemical; conditions: PLP reconstitution at pH 7.2, 25 °C; assay 50 mM Tris pH 7.5, 1 mM L-cysteine, 1 mM DTT, 50 μM PLP
[3] = target: Methanosarcina acetivorans IscS2 (MA2718), reconstituted with PLP (Methanosarcina acetivorans); experiment: SEC; IscS2^PLP (3.3 mg loaded) on HiPrep 16/60 Sephacryl S-200, 0.5 ml/min, 50 mM Tris pH 8.0, 150 mM NaCl, 2 mM DTT, 10% glycerol; calibrated with standard proteins; calculated 84 kDa

N[C@@H](CS)C(=O)O [L-cysteine]
sulfide release, methylene blue assay (670 nm) (IscS2 [1]): Purified IscS2 was able to remove sulfur from L-cysteine

Cc1ncc(COP(=O)(O)O)c(C=O)c1O [PLP]
UV-visible spectrum (420 nm) and cysteine desulfurase activity with and without (IscS2 [2]): these results reveal that IscS2 is a PLP-dependent cysteine desulfurase

Methanosarcina acetivorans IscS2 (MA2718), reconstituted with PLP (enzyme)
stoichiometry N [3]: 2
